Converted amounts (≈) assume the structure as drawn. Like-named read-outs stand apart in the source and are kept apart here.
Tests used:
Sarcina lutea PCI 1001 = experiment: MIC, standard serial dilution on nutrient agar; assay type: cell-based; settings: Micrococcus luteus
Providencia Pv 37 = experiment: MIC, standard serial dilution on nutrient agar; assay type: cell-based; settings: PV37, 37° C., 18 hours
Klebsiella THO = experiment: MIC, standard serial dilution on nutrient agar; assay type: cell-based; settings: Klebsiella, 18 h
[1] = test system: Staphylococcus epidermides 109; experiment: MIC, standard serial dilution on nutrient agar; assay type: cell-based; settings: Staphylococcus, 109, 18 h
Proteus rettgeri AUB = experiment: MIC, standard serial dilution on nutrient agar; assay type: cell-based; settings: Providencia rettgeri
Escherichia coli K-12 = experiment: MIC, standard serial dilution on nutrient agar; assay type: cell-based; settings: K12, 37° C., 18 hours
[2] = test system: Pseudomonas aeruginosa A3; experiment: MIC, standard serial dilution on nutrient agar; assay type: cell-based
Klebsiella BRIA = experiment: MIC, standard serial dilution on nutrient agar; assay type: cell-based; settings: Klebsiella, 18 h
[3] = test system: Escherichia coli K-12 ML 1629; experiment: MIC, standard serial dilution on nutrient agar; assay type: cell-based; settings: K12ML1629, 37° C., 18 hours
[4] = test system: Staphylococcus aureus APOI; experiment: MIC, standard serial dilution on nutrient agar; assay type: cell-based; settings: Staphylococcus aureus, 18 h
Proteus vulgaris BAC = experiment: MIC, standard serial dilution on nutrient agar; assay type: cell-based; settings: Proteus vulgaris, 18 h
Erwinia 7-22 = experiment: MIC, standard serial dilution on nutrient agar; assay type: cell-based; settings: 722, 37° C., 18 hours
Pyocyanique = experiment: MIC, standard serial dilution on nutrient agar; assay type: cell-based
[5] = test system: Klebsiella pneumoniae 22 #3038; experiment: MIC, standard serial dilution on nutrient agar; assay type: cell-based
Serratia 7 = experiment: MIC, standard serial dilution on nutrient agar; assay type: cell-based
[6] = test system: Staphylococcus aureus 209P; experiment: MIC, standard serial dilution on nutrient agar; assay type: cell-based; settings: Staphylococcus aureus, 209P, 18 h
Serratia BOT = experiment: MIC, standard serial dilution on nutrient agar; assay type: cell-based; settings: Serratia, 18 h
Klebsiella HOU = experiment: MIC, standard serial dilution on nutrient agar; assay type: cell-based
resistant bacteria [7] = settings: in words, from Table 1
Protocol: The minimum inhibitory concentrations (mcg/ml) of the new compounds of this invention against various microorganisms were determined according to a standard serial dilution method using nutrient agar incubation medium at 37° C., the estimation being made after 18 hours incubation. For comparison purpose, the MIC. of kanamycin A, amikacin and dibekacin was also determined under the same test conditions.

Serratia CAT = experiment: MIC, standard serial dilution on nutrient agar; assay type: cell-based; settings: Serratia, 18 h
[8] = test system: Staphylococcus aureus MS 9610; experiment: MIC, standard serial dilution on nutrient agar; assay type: cell-based; settings: Staphylococcus aureus, MS9610, 18 h
[9] = test system: Staphylococcus aureus MS 9883; experiment: MIC, standard serial dilution on nutrient agar; assay type: cell-based
Enterobacter 666 = experiment: MIC, standard serial dilution on nutrient agar; assay type: cell-based; settings: 37° C., 18 hours
Providencia ZAO = experiment: MIC, standard serial dilution on nutrient agar; assay type: cell-based; settings: Providencia, 18 h
Enterobacter HAU = experiment: MIC, standard serial dilution on nutrient agar; assay type: cell-based
Providencia 19 = experiment: MIC, standard serial dilution on nutrient agar; assay type: cell-based
resistant bacteria [10] = settings: in words, background art; cited from earlier work
[11] = acute toxicity, intravenous injection in mice; assay type: in vivo; settings: mouse, in vivo
Source text: (§1) Therefore, the new compounds of this invention are useful in therapeutic treatment of infections by various gram-negative and gram-positive bacteria, including the resistant bacterial strains. […] Accordingly, the low toxicity of the above new compounds of general formula (I) according to this invention is note-worthy, and the low toxicity of the new compounds of this invention with retaining the antibacterial activity substantially as high as that of the above-described known drugs will facilitate the clinical use of the new compounds, fulfilling the modern demand for providing efficient and less toxic drugs.

mice = experiment: acute toxicity, intravenous injection in mice; assay type: in vivo
Source text: as §1

[12] = Pseudomonas aeruginosa, A3, 18 h

Compound	MIC (Providencia Pv 37) [µg/mL]	MIC (Klebsiella THO) [µg/mL]	MIC [1] [µg/mL]	MIC (Escherichia coli K-12) [µg/mL]	MIC (Klebsiella BRIA) [µg/mL]	MIC [3] [µg/mL]	MIC [4] [µg/mL]	MIC (Proteus vulgaris BAC) [µg/mL]	MIC (Erwinia 7-22) [µg/mL]	MIC [6] [µg/mL]	MIC (Serratia BOT) [µg/mL]	MIC (Serratia CAT) [µg/mL]	MIC [8] [µg/mL]	MIC (Enterobacter 666) [µg/mL]	MIC (Providencia ZAO) [µg/mL]	MIC (Sarcina lutea PCI 1001; PCI1001, 18 h) [µg/mL]	MIC (Proteus rettgeri AUB; 18 h) [µg/mL]	MIC [2, 12] [µg/mL]	MIC (Pyocyanique; 18 h) [µg/mL]	MIC ([5]; Klebsiella pneumoniae, 18 h) [µg/mL]	further results
NCCC(O)C(=O)NC1CC(N)C(OC2OC(CN)CCC2O)C(O)C1OC1OC(CO)C(O)C(N)C1O [Compound No. 2, 1-N-((S)-2-hydroxy-4-aminobutyryl)-3',4'-dideoxykanamycin A]	6.25 (≈ 11.3 µM)	1.56 (≈ 2.82 µM)	0.78 (≈ 1.41 µM)	1.56 (≈ 2.82 µM)	1.56 (≈ 2.82 µM)	1.56 (≈ 2.82 µM)	0.78 (≈ 1.41 µM)	1.56 (≈ 2.82 µM)	0.78 (≈ 1.41 µM)	1.56 (≈ 2.82 µM)	6.25 (≈ 11.3 µM)	6.25 (≈ 11.3 µM)	1.56 (≈ 2.82 µM)	0.78 (≈ 1.41 µM)	6.25 (≈ 11.3 µM)						MIC (Sarcina lutea PCI 1001; PCI1001, Sarcina lutea PCI 1001, nutrient agar, 37° C., 18 hours, read-out: MIC.): 3.12 µg/mL (≈ 5.64 µM); MIC (Proteus rettgeri AUB; Proteus rettgeri AUB, nutrient agar, 37° C., 18 hours, read-out: MIC.): 3.12 µg/mL (≈ 5.64 µM); MIC ([2]; Pseudomonas aeruginosa A3, nutrient agar, 37° C., 18 hours, read-out: MIC.): 3.12 µg/mL (≈ 5.64 µM); MIC (Pyocyanique; Pyocyanique, nutrient agar, 37° C., 18 hours, read-out: MIC.): 12.5 µg/mL (≈ 22.6 µM); MIC ([5]; Klebsiella pneumoniae 22 #3038, nutrient agar, 37° C., 18 hours, read-out: MIC.): 3.12 µg/mL (≈ 5.64 µM); MIC (Serratia 7; Serratia 7, nutrient agar, 37° C., 18 hours, read-out: MIC.): 3.12 µg/mL (≈ 5.64 µM); MIC (Klebsiella HOU; Klebsiella HOU, nutrient agar, 37° C., 18 hours, read-out: MIC.): 3.12 µg/mL (≈ 5.64 µM); antibacterial activity against various resistant bacteria (resistant bacteria [7]): higher antibacterial activity against the various resistant bacteria than amikacin; MIC ([9]; MS9883, Staphylococcus aureus MS 9883, nutrient agar, 37° C., 18 hours, read-out: MIC.): 3.12 µg/mL (≈ 5.64 µM); MIC (Enterobacter HAU; Enterobacter HAU, nutrient agar, 37° C., 18 hours, read-out: MIC.): 12.5 µg/mL (≈ 22.6 µM); MIC (Providencia 19; Providencia 19, nutrient agar, 37° C., 18 hours, read-out: MIC.): 3.12 µg/mL (≈ 5.64 µM)
NC[C@@H]1CC[C@@H](N)[C@@H](O[C@H]2[C@H](O)[C@@H](O[C@H]3O[C@H](CO)[C@@H](O)[C@H](N)[C@H]3O)[C@H](N)C[C@@H]2N)O1 [Dibekacin, 3',4'-dideoxykanamycin B]	> 100	1.56 (≈ 3.45 µM)	0.78 (≈ 1.73 µM)	1.56 (≈ 3.45 µM)	> 100	1.56 (≈ 3.45 µM)	0.78 (≈ 1.73 µM)	12.5 (≈ 27.7 µM)	> 100	0.78 (≈ 1.73 µM)	25 (≈ 55.4 µM)	6.25 (≈ 13.8 µM)		> 100	> 100	25 (≈ 55.4 µM)	100 (≈ 221 µM)	0.78 (≈ 1.73 µM)	6.25 (≈ 13.8 µM)	> 100	activity against resistant bacteria (resistant bacteria [10]): remarkably active against a wide variety of resistant bacteria; LD50 [11]: 80 to 120 mg/kg; MIC (Serratia 7; Serratia, 7, 18 h): > 100 µg/mL; MIC (Klebsiella HOU; Klebsiella, 18 h): > 100 µg/mL; MIC (Enterobacter HAU; Enterobacter, 18 h): > 100 µg/mL; MIC (Providencia 19; Providencia, 19, 18 h): > 100 µg/mL
NCC1OC(OC2C(N)CC(N)C(OC3OC(CO)C(O)C(N)C3O)C2O)C(O)C(O)C1O (centres unmarked) [Kanamycin A]	> 100	> 100	25 (≈ 51.6 µM)	3.12 (≈ 6.44 µM)	> 100	> 100	12.5 (≈ 25.8 µM)	> 100	> 100	3.12 (≈ 6.44 µM)	6.25 (≈ 12.9 µM)	> 100	6.25 (≈ 12.9 µM)	> 100	> 100	12.5 (≈ 25.8 µM)	> 100	25 (≈ 51.6 µM)	50 (≈ 103 µM)	> 100	MIC (Serratia 7; Serratia, 7, 18 h): > 100 µg/mL; MIC (Klebsiella HOU; Klebsiella, 18 h): > 100 µg/mL; MIC ([9]; Staphylococcus aureus, MS9883, 18 h): 6.25 µg/mL (≈ 12.9 µM); MIC (Enterobacter HAU; Enterobacter, 18 h): > 100 µg/mL; MIC (Providencia 19; Providencia, 19, 18 h): > 100 µg/mL
gentamicin																					LD50 value (acute toxicity) (mice): 80 to 120 mg/kg

Reference: US4298727A, “3',4'-Dideoxykanamycin A and 1-N-(S)-α-hydroxy-ω-aminoalkanoyl) derivatives thereof” (Zaidan Hojin Biseibutsu Kagaku KenkyuKai, priority 1979, dated 1981)
